Consider 1 compound from patent US8618154B2, “LXR modulators” (Bristol-Myers Squibb Company, priority 2009, dated 2013).

This assay deals with ABCA1 gene expression. Nature of the assay: Human whole blood assay (hWBA), ABCA1 mRNA induction. The format is cell-based. The note with it: Homo sapiens; full LXRα and LXRβ pan agonist used as reference; read-out: EC50 of reference compound. The protocol:
Human whole blood was collected in EDTA containing tubes and 0.5 mL aliquots were immediately mixed in a 96 well block with the appropriate serial dilution of test compound, in 0.5% DMSO. Compounds were incubated with blood at 37° C. with constant rocking for 4 hours. After incubation, cells were lysed in ABI Nucleic Acid Purification Lysis Solution (Applied Biosystems catalog #4305895) and frozen at −80° C. Following cell lysis, total RNA was purified using an ABI 6100 RNA prep station according to the protocol provided by the manufacturer. cDNAs were synthesized, and mRNAs were quantitated using SYBR-Green Quantitative PCR (Q-PCR) on an ABI Prism 7900HT Sequence Detection System and reagents from Quanta Bioscience Inc (Quanta Bioscience catalog #95047 and 95055).
The quantity of each mRNA was determined by the ΔΔCT method (Michael W. Pfaffl. A new mathematical model for relative quantification in real-time RT-PCR. Nucleic Acids Research, 2001, Vol. 29, No. 9 e45) and normalized to the quantity of two control mRNAs, i.e. ribosomal protein L-30 (L-30) and beta-2-microglobulin (B2M). The induction of ABCA1 and ABCG1 by test compound was graphed as a percent of the reference compound, 2-(4-(5-(5-cyano-1-(2,4-difluorobenzyl)-6-oxo-4-(trifluoromethyl)-1,6-dihydropyridin-2-yl)thiophen-2-yl)-3-methylphenyl)acetic acid, and potency (EC50) and activity (% MAX) were calculated by fitting a sigmoidal response curve as a function of log transformed compound concentration using XLFit software according to the equation y=A+((B−A)/(1+((C/x)^D))).

The structures appear in SMILES notation.

Take `Cc1cc(CC(=O)O)ccc1-c1ccc(-c2cc(C(F)(F)F)c(C#N)c(=O)n2Cc2ccc(F)cc2F)s1` [2-(4-(5-(5-cyano-1-(2,4-difluorobenzyl)-6-oxo-4-(trifluoromethyl)-1,6-dihydropyridin-2-yl)thiophen-2-yl)-3-methylphenyl)acetic acid, reference compound]: the EC50 lay in the range of 1000 to 2000 nM.
